Measured values from US10253007B2, “Taxanes compounds, preparation method therefor, and uses thereof” (Jiangsu Tasly Diyi Pharmaceutical Co., Ltd., priority 2013, dated 2019).
Like-named read-outs stand apart in the source and are kept apart here.

What was measured:
[1] = MTT assay, proliferation inhibition; assay type: cell-based; conditions: Homo sapiens, LN-18 gastric cancer, read-out: Proliferation inhibition rate
Description: (§1) 1. Cytotoxicity Assay Using Human Tumor Cell Lines
(§2) Paclitaxel was used as the positive drug.

A2780 ovarian cancer = test: MTT assay, proliferation inhibition; assay type: cell-based; conditions: Homo sapiens, read-out: Proliferation inhibition rate
Description: as §1, §2

A375 melanoma = test: MTT assay, proliferation inhibition; assay type: cell-based; conditions: Homo sapiens, A-375, read-out: Proliferation inhibition rate
Description: as §1, §2

[2] = system: A549 non-small cell lung cancer; test: MTT assay, proliferation inhibition; assay type: cell-based; conditions: Homo sapiens, read-out: Proliferation inhibition rate
Description: as §1, §2

B16 melanoma = test: MTT assay, proliferation inhibition; assay type: cell-based; conditions: read-out: Proliferation inhibition rate
Description: as §1, §2

BGC-823 gastric cancer = test: MTT assay, proliferation inhibition; assay type: cell-based; conditions: Homo sapiens, read-out: Proliferation inhibition rate
Description: as §1, §2

DU145 prostate cancer = test: MTT assay, proliferation inhibition; assay type: cell-based; conditions: Homo sapiens, DU-145, read-out: Proliferation inhibition rate
Description: as §1, §2

HCT 116 colon cancer = test: MTT assay, proliferation inhibition; assay type: cell-based; conditions: Homo sapiens, read-out: Proliferation inhibition rate
Description: as §1, §2

HL60 leukemia = test: MTT assay, proliferation inhibition; assay type: cell-based; conditions: Homo sapiens, HL-60, read-out: Proliferation inhibition rate
Description: as §1, §2

HT29 colon cancer = test: MTT assay, proliferation inhibition; assay type: cell-based; conditions: Homo sapiens, HT-29, read-out: Proliferation inhibition rate
Description: as §1, §2

HeLa cervical cancer = test: MTT assay, proliferation inhibition; assay type: cell-based; conditions: Homo sapiens, read-out: Proliferation inhibition rate
Description: as §1, §2

K562 leukemia = test: MTT assay, proliferation inhibition; assay type: cell-based; conditions: Homo sapiens, read-out: Proliferation inhibition rate
Description: as §1, §2

LNCaP prostate cancer = test: MTT assay, proliferation inhibition; assay type: cell-based; conditions: Homo sapiens, read-out: Proliferation inhibition rate
Description: as §1, §2

MCF-7 breast cancer = test: MTT assay, proliferation inhibition; assay type: cell-based; conditions: Homo sapiens, MCF7, read-out: Proliferation inhibition rate
Description: as §1, §2

MDA-MB-436 breast cancer = test: MTT assay, proliferation inhibition; assay type: cell-based; conditions: Homo sapiens, read-out: Proliferation inhibition rate
Description: as §1, §2

[3] = system: NCI-H460 non-small cell lung cancer; test: MTT assay, proliferation inhibition; assay type: cell-based; conditions: Homo sapiens, read-out: Proliferation inhibition rate
Description: as §1, §2

[4] = system: breast cancer cell line MCF-7; test: IC50 values on breast cancer cell line MCF-7; assay type: cell-based; conditions: Homo sapiens
Description: From the activity evaluation data of the above-mentioned preliminary screen, it can be seen that the series of taxanes derivatives synthesized in the present invention have activity (although the activity of PCMI-43 is weakened). Afterward, most of the compounds are picked up from these derivatives to examine their IC50 values on breast cancer cell line MCF-7. Paclitaxel is used as the positive control drug. Experiments for each compound were independently repeated for three times and multiple holes were used in each experiment. The exposure time of drugs was 72 hours.

[5] = Caco-2 cell monolayer membrane transport assay; conditions: human; for Papp A→B: Caco-2, Papp A-B; for recovery: Caco-2, Recovery rate in mass
Description: Caco-2 Cell Monolayer Membrane Transport Assay
Human-derived colorectal adenocarcinoma cell line Caco-2 cell monolayer model was used to study the bidirectional transport of the target compounds from the apical (AP) side to the basolateral (BL) side and from BL side to AP side. HPLC was used for quantitative analysis to calculate transport parameters, apparent permeability coefficient (Papp) and the efflux ratio.

[6] = MCF7, 72 h, read-out: MCF-7(IC50, nM)
[7] = Sample-01, Caco-2, A-B, Sample-01
[8] = Sample-02, Caco-2, A-B, Sample-02
[9] = Mean, Caco-2, A-B, mean of two samples
[10] = MCF7, MCF-7, exposure 72 hours, mean±SD of three independent experiments, read-out: MCF-7(IC50)

Structure (SMILES) | inhibition at 1 µM [1] | inhibition at 1 µM (A2780 ovarian cancer) | inhibition at 1 µM (A375 melanoma) | inhibition at 1 µM [2] | inhibition at 1 µM (B16 melanoma) | inhibition at 1 µM (BGC-823 gastric cancer) | inhibition at 1 µM (DU145 prostate cancer) | inhibition at 1 µM (HCT 116 colon cancer) | inhibition at 1 µM (HL60 leukemia) | inhibition at 1 µM (HT29 colon cancer) | inhibition at 1 µM (HeLa cervical cancer) | inhibition at 1 µM (K562 leukemia) | inhibition at 1 µM (LNCaP prostate cancer) | inhibition at 1 µM (MCF-7 breast cancer) | inhibition at 1 µM (MDA-MB-436 breast cancer) | inhibition at 1 µM [3] | Papp A→B [5, 7] | Papp A→B [5, 8] | recovery [5, 9] | recovery [5, 7] | further results
CO[C@H]1C(=O)[C@]2(C)[C@@H](OC(=O)N(C)C)C[C@H]3OC[C@@]3(OC(C)=O)[C@H]2[C@H](OC(=O)c2ccccc2)[C@]2(O)C[C@H](OC(=O)[C@H](O)[C@@H](NC(=O)c3ccccc3)c3ccccc3)C(C)=C1C2(C)C [PCMI-32] | 92.2% | 95.8% | 90.4% | 74.5% | 77.8% | 95.1% | 87.5% | 57.7% | 97.8% | 89.8% | 103% | 91% | 83.4% | 102% | 74.4% | 86.6% | 3.16 ×10⁻⁶ cm/s | 3.38 ×10⁻⁶ cm/s | 81.9% | 82.1% | IC50 [4, 6]: 64.67 ± 0.18 nM; recovery [5, 8]: 81.6%
CO[C@H]1C(=O)[C@]2(C)[C@@H](OC(=O)N(C)C)C[C@H]3OC[C@@]3(OC(C)=O)[C@H]2[C@H](OC(=O)c2ccccc2)[C@]2(O)C[C@H](OC(=O)[C@H](O)[C@@H](NC(=O)OC(C)(C)C)c3ccccn3)C(C)=C1C2(C)C [PCMI-33] | 93.2% | 94.7% | 90.3% | 74.1% | 81.8% | 94.1% | 86.3% | 56% | 97.8% | 89.1% | 103% | 91.1% | 83.6% | 83.5% | 76.2% | 87.8% | 4.27 ×10⁻⁶ cm/s | 4.54 ×10⁻⁶ cm/s | 94.9% | 95.8% | IC50 [4, 6]: 46.63 ± 0.14 nM; recovery [5, 8]: 94%
CO[C@H]1C(=O)[C@]2(C)[C@@H](OC(=O)N(C)C)C[C@H]3OC[C@@]3(OC(C)=O)[C@H]2[C@H](OC(=O)c2ccccc2)[C@]2(O)C[C@H](OC(=O)[C@H](O)[C@@H](NC(=O)N(C)C)c3ccccc3)C(C)=C1C2(C)C [PCMI-35] | 93.5% | 94.2% | 95.3% | 76.2% | 80.3% | 95.8% | 89.8% | 65.5% | 97.5% | 87.3% | 99.9% | 92.7% | 85.3% | 92.5% | 80.2% | 86.9% | 3.21 ×10⁻⁶ cm/s | 2.87 ×10⁻⁶ cm/s | 91.3% | 95% | IC50 [4, 10]: 4.28 ± 0.08 nM; Papp A→B [5, 9]: 3.04 ×10⁻⁶ cm/s; recovery [5, 8]: 87.6%
COC(=O)O[C@H]1C[C@H]2OC[C@@]2(OC(C)=O)[C@H]2[C@H](OC(=O)c3ccccc3)[C@]3(O)C[C@H](OC(=O)[C@H](O)[C@@H](NC(=O)OC(C)(C)C)c4ccccc4)C(C)=C([C@@H](OC)C(=O)[C@]12C)C3(C)C [PCMI-36] | 95.9% | 96.9% | 94% | 78% | 81.8% | 94.6% | 88.3% | 67.2% | 97.8% | 89.7% | 102% | 94.5% | 83.8% | 107% | 77.5% | 90.3% | 6.66 ×10⁻⁶ cm/s | 7.29 ×10⁻⁶ cm/s | 88.5% | 95.5% | IC50 [4, 6]: 4.97 ± 0.06 nM; recovery [5, 8]: 81.4%
CCSC(=O)O[C@H]1C[C@H]2OC[C@@]2(OC(C)=O)[C@H]2[C@H](OC(=O)c3ccccc3)[C@]3(O)C[C@H](OC(=O)[C@H](O)[C@@H](NC(=O)N(C)C)c4ccccc4)C(C)=C([C@@H](OC)C(=O)[C@]12C)C3(C)C [PCMI-40] | 93.9% | 94.2% | 95.2% | 80.2% | 83.7% | 93.3% | 90% | 67.3% | 96.9% | 87.2% | 99.6% | 92.7% | 87.2% | 94.7% | 83.6% | 87.3% | 3.78 ×10⁻⁶ cm/s | 4.05 ×10⁻⁶ cm/s | 74.5% | 78.2% | IC50 [4, 6]: 5.49 ± 0.14 nM; Papp B→A ([5]; Caco-2): 37.2 ×10⁻⁶ cm/s; efflux ratio ([5]; Caco-2): 5.36; Papp A→B ([5]; Caco-2 cell line (21 days), bidirectional transport, Table 5): 6.92 ×10⁻⁶ cm/s; Papp A→B [5, 9]: 3.92 ×10⁻⁶ cm/s; recovery [5, 8]: 70.7%
CO[C@H]1C(=O)[C@]2(C)CC[C@H]3OC[C@@]3(OC(C)=O)[C@H]2[C@H](OC(=O)c2ccccc2)[C@]2(O)C[C@H](OC(=O)[C@H](O)[C@@H](NC(=O)OC(C)(C)C)c3ccccc3)C(C)=C1C2(C)C [PCMI-41] | 94.6% | 95.8% | 91.6% | 77% | 81.1% | 93.1% | 87.6% | 65% | 97.7% | 88.3% | 101% | 94.3% | 82.5% | 95.5% | 80.1% | 85.7% | 4.27 ×10⁻⁶ cm/s | 5.79 ×10⁻⁶ cm/s | 101% | 97% | IC50 [4, 10]: 3.33 ± 0.11 nM; Papp A→B [5, 9]: 5.03 ×10⁻⁶ cm/s; recovery [5, 8]: 105%
